Data published in the supplement of paper PMC12463676, “Small-molecule dissolution of stress granules by redox modulation benefits ALS models” (Nature Chemical Biology, 2025).

Columns and labels:
potassium arsenate = compound: O=[As]([O-])(O)O.[K+] [potassium arsenate]; test: thermal stability z-score vs DMSO; higher = more thermally stabilized by treatment; conditions: HeLa; arsenate concentration 1 mM
Protocol: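 Cellular thermal proteome profiling in HeLa cells treated with 1 mM arsenate for 1 h (DMSO pretreatment), heated to ten temperatures (37-66.3 °C). Soluble protein was quantified by TMT mass spectrometry relative to DMSO controls; the thermal stability score was transformed to a z-score; mean of n = 3 experiments.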

lipoamide = compound: NC(=O)CCCCC1CCSS1 [lipoamide]; test: as above; conditions: HeLa, lipoamide concentration 100 µM
Protocol: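 Cellular thermal proteome profiling in HeLa cells. Cells were treated with 100 µM lipoamide for 1 h, with or without 1 mM arsenate for a further 1 h, then heated to ten temperatures (37-66.3 °C), and soluble protein was quantified by TMT mass spectrometry relative to 0.1% DMSO controls. The thermal stability score (sum of log2 fold changes minus the abundance score) was transformed to a z-score; mean of n = 3 experiments.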

[1] = arsenate co-treatment: 1 mM arsenate 1 h
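Further: each temperature applied for 3 min, abundance score taken as mean log2 fold change at the two lowest temperatures, z-score obtained by mean subtraction and division by SD.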

Target: APOL2 (UniProt Q9BQE5)
- thermal stability z-score (potassium arsenate): 0.589
- thermal stability z-score (lipoamide; [1]): -0.399
- thermal stability z-score (lipoamide; arsenate co-treatment: none): 0.15

Target: TGFB1 (UniProt P01137)
- thermal stability z-score (potassium arsenate): -0.306
- thermal stability z-score (lipoamide; [1]): -2.9
- thermal stability z-score (lipoamide; arsenate co-treatment: none): -3.34

Target: SPR (UniProt P35270)
- thermal stability z-score (potassium arsenate): 1.36
- thermal stability z-score (lipoamide; [1]): 1.28
- thermal stability z-score (lipoamide; arsenate co-treatment: none): 0.634

Target: MSN (UniProt P26038)
- thermal stability z-score (potassium arsenate): -0.891
- thermal stability z-score (lipoamide; [1]): 0.727
- thermal stability z-score (lipoamide; arsenate co-treatment: none): 0.377

Target: FRRS1 (UniProt Q6ZNA5)
- thermal stability z-score (potassium arsenate): 0.586
- thermal stability z-score (lipoamide; [1]): -0.316
- thermal stability z-score (lipoamide; arsenate co-treatment: none): -0.157

Target: EIF3J (UniProt O75822)
- thermal stability z-score (potassium arsenate): 0.444
- thermal stability z-score (lipoamide; [1]): 0.395
- thermal stability z-score (lipoamide; arsenate co-treatment: none): -0.118

Target: DPH7 (UniProt Q9BTV6)
Sequence of UniProt Q9BTV6 (Q9BTV6 whole entry): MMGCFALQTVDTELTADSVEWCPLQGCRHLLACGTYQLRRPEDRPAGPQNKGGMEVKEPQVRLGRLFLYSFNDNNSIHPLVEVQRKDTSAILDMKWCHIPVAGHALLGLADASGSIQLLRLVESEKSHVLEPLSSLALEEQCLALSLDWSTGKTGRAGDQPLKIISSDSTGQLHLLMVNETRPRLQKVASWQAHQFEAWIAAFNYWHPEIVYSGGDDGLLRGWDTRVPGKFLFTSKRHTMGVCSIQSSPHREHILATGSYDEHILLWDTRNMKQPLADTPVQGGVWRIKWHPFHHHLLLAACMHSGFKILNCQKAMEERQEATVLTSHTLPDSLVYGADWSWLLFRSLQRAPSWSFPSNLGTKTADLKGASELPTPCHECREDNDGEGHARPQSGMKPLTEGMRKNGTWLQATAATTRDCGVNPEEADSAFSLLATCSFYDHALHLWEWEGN
- thermal stability z-score (potassium arsenate): 0.093
- thermal stability z-score (lipoamide; [1]): -1.62
- thermal stability z-score (lipoamide; arsenate co-treatment: none): 0.272

Target: OTUD7B (UniProt Q6GQQ9)
- thermal stability z-score (potassium arsenate): 0.0572
- thermal stability z-score (lipoamide; [1]): 0.194
- thermal stability z-score (lipoamide; arsenate co-treatment: none): 0.173

Target: C3ORF58 (UniProt Q8NDZ4)
Sequence of UniProt Q8NDZ4 (Q8NDZ4 whole entry): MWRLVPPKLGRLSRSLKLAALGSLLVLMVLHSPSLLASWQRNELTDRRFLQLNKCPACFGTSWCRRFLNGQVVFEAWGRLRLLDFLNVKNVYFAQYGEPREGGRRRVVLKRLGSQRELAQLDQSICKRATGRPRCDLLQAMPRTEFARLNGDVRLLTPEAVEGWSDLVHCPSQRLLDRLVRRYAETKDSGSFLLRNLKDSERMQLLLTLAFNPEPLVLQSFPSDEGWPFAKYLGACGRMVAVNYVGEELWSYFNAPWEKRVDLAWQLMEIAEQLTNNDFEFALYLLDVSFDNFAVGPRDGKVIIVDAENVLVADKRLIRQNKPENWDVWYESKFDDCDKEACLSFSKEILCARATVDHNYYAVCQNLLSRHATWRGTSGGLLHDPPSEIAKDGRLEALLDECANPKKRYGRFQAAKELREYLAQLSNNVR
- thermal stability z-score (potassium arsenate): 0.287
- thermal stability z-score (lipoamide; [1]): -0.093
- thermal stability z-score (lipoamide; arsenate co-treatment: none): -0.000578

Target: SCYL1 (UniProt Q96KG9)
- thermal stability z-score (potassium arsenate): -0.278
- thermal stability z-score (lipoamide; [1]): -0.269
- thermal stability z-score (lipoamide; arsenate co-treatment: none): -0.198

Target: SLC25A32 (UniProt Q9H2D1)
- thermal stability z-score (potassium arsenate): -0.601
- thermal stability z-score (lipoamide; [1]): -0.958
- thermal stability z-score (lipoamide; arsenate co-treatment: none): -1.17

Target: RPA3 (UniProt P35244)
- thermal stability z-score (potassium arsenate): 0.872
- thermal stability z-score (lipoamide; [1]): 0.313
- thermal stability z-score (lipoamide; arsenate co-treatment: none): 0.624

Target: PGM2 (UniProt Q96G03)
- thermal stability z-score (potassium arsenate): -0.24
- thermal stability z-score (lipoamide; [1]): -0.0134
- thermal stability z-score (lipoamide; arsenate co-treatment: none): -0.155

Target: MRPL46 (UniProt Q9H2W6)
- thermal stability z-score (potassium arsenate): -0.0514
- thermal stability z-score (lipoamide; [1]): -0.218
- thermal stability z-score (lipoamide; arsenate co-treatment: none): 0.1

Target: PSMG4 (UniProt Q5JS54)
Sequence of UniProt Q5JS54 (Q5JS54 whole entry): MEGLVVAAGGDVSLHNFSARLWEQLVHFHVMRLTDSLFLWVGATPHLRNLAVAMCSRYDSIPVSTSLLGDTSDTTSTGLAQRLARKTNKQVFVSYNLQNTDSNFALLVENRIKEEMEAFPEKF
- thermal stability z-score (potassium arsenate): -1.38
- thermal stability z-score (lipoamide; [1]): -1.42
- thermal stability z-score (lipoamide; arsenate co-treatment: none): -1.53

Target: PTTG1IP (UniProt P53801)
Sequence of UniProt P53801 (P53801 whole entry): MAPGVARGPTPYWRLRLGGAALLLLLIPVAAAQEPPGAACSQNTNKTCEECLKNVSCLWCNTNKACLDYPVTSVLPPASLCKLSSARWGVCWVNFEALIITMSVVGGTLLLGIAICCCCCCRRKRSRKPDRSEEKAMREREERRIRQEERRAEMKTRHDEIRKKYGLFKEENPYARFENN
- thermal stability z-score (potassium arsenate): -0.2
- thermal stability z-score (lipoamide; [1]): -0.059
- thermal stability z-score (lipoamide; arsenate co-treatment: none): -0.0338

Target: GYS1 (UniProt P13807)
Sequence of UniProt P13807 (P13807 whole entry): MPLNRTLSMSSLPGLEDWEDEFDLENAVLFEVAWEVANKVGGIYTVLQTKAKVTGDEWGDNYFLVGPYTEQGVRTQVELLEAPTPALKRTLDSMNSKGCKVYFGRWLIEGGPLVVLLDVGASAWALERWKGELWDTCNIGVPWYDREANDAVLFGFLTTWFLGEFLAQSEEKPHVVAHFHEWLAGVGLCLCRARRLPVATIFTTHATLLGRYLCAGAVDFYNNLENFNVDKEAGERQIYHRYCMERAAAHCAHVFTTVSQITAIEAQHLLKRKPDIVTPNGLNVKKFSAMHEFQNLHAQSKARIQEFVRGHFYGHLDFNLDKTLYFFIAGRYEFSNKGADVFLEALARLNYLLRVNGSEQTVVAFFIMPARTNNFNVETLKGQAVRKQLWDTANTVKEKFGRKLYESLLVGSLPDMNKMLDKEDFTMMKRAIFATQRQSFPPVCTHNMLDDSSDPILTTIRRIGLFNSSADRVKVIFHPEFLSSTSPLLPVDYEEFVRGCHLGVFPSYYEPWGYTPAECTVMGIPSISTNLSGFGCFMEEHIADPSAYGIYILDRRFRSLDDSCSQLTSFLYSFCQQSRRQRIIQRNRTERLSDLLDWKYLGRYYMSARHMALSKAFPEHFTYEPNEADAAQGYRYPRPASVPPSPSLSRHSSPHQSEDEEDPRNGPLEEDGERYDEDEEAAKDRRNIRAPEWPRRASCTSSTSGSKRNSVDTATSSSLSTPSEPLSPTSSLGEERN
- thermal stability z-score (potassium arsenate): 0.706
- thermal stability z-score (lipoamide; [1]): 0.31
- thermal stability z-score (lipoamide; arsenate co-treatment: none): 0.22

Target: PAGE1 (UniProt O75459)
- thermal stability z-score (potassium arsenate): -0.636
- thermal stability z-score (lipoamide; [1]): 0.147
- thermal stability z-score (lipoamide; arsenate co-treatment: none): 0.51

Target: KATNBL1 (UniProt Q9H079)
- thermal stability z-score (potassium arsenate): 0.427
- thermal stability z-score (lipoamide; [1]): 0.226
- thermal stability z-score (lipoamide; arsenate co-treatment: none): 0.62

Target: PRTFDC1 (UniProt Q9NRG1)
- thermal stability z-score (potassium arsenate): -0.386
- thermal stability z-score (lipoamide; [1]): 0.628
- thermal stability z-score (lipoamide; arsenate co-treatment: none): 0.169

Target: TSC2 (UniProt P49815)
- thermal stability z-score (potassium arsenate): 0.0977
- thermal stability z-score (lipoamide; [1]): 0.021
- thermal stability z-score (lipoamide; arsenate co-treatment: none): -0.0212

Target: HDAC7 (UniProt Q8WUI4)
- thermal stability z-score (potassium arsenate): -0.534
- thermal stability z-score (lipoamide; [1]): 0.158
- thermal stability z-score (lipoamide; arsenate co-treatment: none): -0.253

Target: ZNF346 (UniProt Q9UL40)
- thermal stability z-score (potassium arsenate): 0.04
- thermal stability z-score (lipoamide; [1]): -0.17
- thermal stability z-score (lipoamide; arsenate co-treatment: none): 0.0809

Target: STXBP2 (UniProt Q15833)
- thermal stability z-score (potassium arsenate): 0.225
- thermal stability z-score (lipoamide; [1]): -0.105
- thermal stability z-score (lipoamide; arsenate co-treatment: none): 0.167

Target: LARP7 (UniProt Q4G0J3)
- thermal stability z-score (potassium arsenate): 0.0679
- thermal stability z-score (lipoamide; [1]): 0.34
- thermal stability z-score (lipoamide; arsenate co-treatment: none): 0.152

Target: NENF (UniProt Q9UMX5)
- thermal stability z-score (potassium arsenate): -0.0969
- thermal stability z-score (lipoamide; [1]): 0.318
- thermal stability z-score (lipoamide; arsenate co-treatment: none): -0.406

Target: RANBP6 (UniProt O60518)
- thermal stability z-score (potassium arsenate): -0.131
- thermal stability z-score (lipoamide; [1]): -0.296
- thermal stability z-score (lipoamide; arsenate co-treatment: none): -0.155

Target: CHCHD1 (UniProt Q96BP2)
- thermal stability z-score (potassium arsenate): -0.0935
- thermal stability z-score (lipoamide; [1]): 0.43
- thermal stability z-score (lipoamide; arsenate co-treatment: none): 0.138

Target: RPA2 (UniProt P15927)
- thermal stability z-score (potassium arsenate): 0.659
- thermal stability z-score (lipoamide; [1]): -0.131
- thermal stability z-score (lipoamide; arsenate co-treatment: none): -0.662

Target: KCTD12 (UniProt Q96CX2)
- thermal stability z-score (potassium arsenate): 1.37
- thermal stability z-score (lipoamide; [1]): 0.867
- thermal stability z-score (lipoamide; arsenate co-treatment: none): 0.7

Target: TSG101 (UniProt Q99816)
- thermal stability z-score (potassium arsenate): -0.0661
- thermal stability z-score (lipoamide; [1]): 0.29
- thermal stability z-score (lipoamide; arsenate co-treatment: none): 0.0321

Target: PAN2 (UniProt Q504Q3)
- thermal stability z-score (potassium arsenate): -0.143
- thermal stability z-score (lipoamide; [1]): 0.0953
- thermal stability z-score (lipoamide; arsenate co-treatment: none): -0.21

Target: MAP7D3 (UniProt Q8IWC1)
Sequence of UniProt Q8IWC1 (Q8IWC1 whole entry): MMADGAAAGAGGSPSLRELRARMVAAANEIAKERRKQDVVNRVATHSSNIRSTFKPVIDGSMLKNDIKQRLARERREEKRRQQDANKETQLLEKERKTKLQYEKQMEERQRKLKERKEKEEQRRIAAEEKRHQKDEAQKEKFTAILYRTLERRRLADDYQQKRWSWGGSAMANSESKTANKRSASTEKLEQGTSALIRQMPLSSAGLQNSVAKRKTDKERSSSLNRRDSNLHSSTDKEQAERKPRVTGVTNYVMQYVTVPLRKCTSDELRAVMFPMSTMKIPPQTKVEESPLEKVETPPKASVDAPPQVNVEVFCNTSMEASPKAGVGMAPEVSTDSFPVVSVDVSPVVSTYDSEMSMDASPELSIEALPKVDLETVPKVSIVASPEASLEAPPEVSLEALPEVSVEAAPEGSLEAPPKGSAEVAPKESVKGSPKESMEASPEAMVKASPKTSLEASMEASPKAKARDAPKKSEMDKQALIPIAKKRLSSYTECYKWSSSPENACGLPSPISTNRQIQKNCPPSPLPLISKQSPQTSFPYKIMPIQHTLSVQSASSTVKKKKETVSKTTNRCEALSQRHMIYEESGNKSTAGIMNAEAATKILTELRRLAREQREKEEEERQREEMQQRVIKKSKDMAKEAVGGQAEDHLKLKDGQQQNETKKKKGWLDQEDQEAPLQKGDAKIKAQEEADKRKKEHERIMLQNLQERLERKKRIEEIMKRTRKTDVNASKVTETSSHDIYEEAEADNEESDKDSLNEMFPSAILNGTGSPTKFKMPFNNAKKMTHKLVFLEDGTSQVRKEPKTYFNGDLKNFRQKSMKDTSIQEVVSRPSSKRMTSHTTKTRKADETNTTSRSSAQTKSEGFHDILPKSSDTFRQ
- thermal stability z-score (potassium arsenate): -1.36
- thermal stability z-score (lipoamide; [1]): -0.18
- thermal stability z-score (lipoamide; arsenate co-treatment: none): -0.509

Target: ZMYM2 (UniProt Q9UBW7)
- thermal stability z-score (potassium arsenate): -0.802
- thermal stability z-score (lipoamide; [1]): -0.105
- thermal stability z-score (lipoamide; arsenate co-treatment: none): -0.0436

Target: FAM177A1 (UniProt Q8N128)
- thermal stability z-score (potassium arsenate): 1.04
- thermal stability z-score (lipoamide; [1]): -0.313
- thermal stability z-score (lipoamide; arsenate co-treatment: none): -0.584

Target: SNX9 (UniProt Q9Y5X1)
- thermal stability z-score (potassium arsenate): 0.276
- thermal stability z-score (lipoamide; [1]): -0.0697
- thermal stability z-score (lipoamide; arsenate co-treatment: none): -0.0413

Target: CRTC3 (UniProt Q6UUV7)
- thermal stability z-score (potassium arsenate): 0.1
- thermal stability z-score (lipoamide; [1]): -0.316
- thermal stability z-score (lipoamide; arsenate co-treatment: none): -0.025

Target: MAPKAPK3 (UniProt Q16644)
- thermal stability z-score (potassium arsenate): -0.508
- thermal stability z-score (lipoamide; [1]): -0.203
- thermal stability z-score (lipoamide; arsenate co-treatment: none): -0.362

Target: EMC2 (UniProt Q15006)
Sequence of UniProt Q15006 (Q15006 whole entry): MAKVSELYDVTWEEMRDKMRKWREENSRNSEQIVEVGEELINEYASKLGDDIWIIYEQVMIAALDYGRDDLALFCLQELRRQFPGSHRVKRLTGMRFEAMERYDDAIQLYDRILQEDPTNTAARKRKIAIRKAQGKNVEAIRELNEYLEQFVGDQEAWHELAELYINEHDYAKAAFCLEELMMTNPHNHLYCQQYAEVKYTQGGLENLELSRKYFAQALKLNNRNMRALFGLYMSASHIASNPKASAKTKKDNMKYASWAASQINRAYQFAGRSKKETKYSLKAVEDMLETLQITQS
- thermal stability z-score (potassium arsenate): 0.472
- thermal stability z-score (lipoamide; [1]): -0.278
- thermal stability z-score (lipoamide; arsenate co-treatment: none): -0.164

Target: INADL (UniProt Q8NI35)
- thermal stability z-score (potassium arsenate): -0.0383
- thermal stability z-score (lipoamide; [1]): -0.13
- thermal stability z-score (lipoamide; arsenate co-treatment: none): -0.0923

Target: MICA (UniProt Q29983)
- thermal stability z-score (potassium arsenate): -0.775
- thermal stability z-score (lipoamide; [1]): -1.72
- thermal stability z-score (lipoamide; arsenate co-treatment: none): -3.33

Target: LPCAT1 (UniProt Q8NF37)
Sequence of UniProt Q8NF37 (Q8NF37 whole entry): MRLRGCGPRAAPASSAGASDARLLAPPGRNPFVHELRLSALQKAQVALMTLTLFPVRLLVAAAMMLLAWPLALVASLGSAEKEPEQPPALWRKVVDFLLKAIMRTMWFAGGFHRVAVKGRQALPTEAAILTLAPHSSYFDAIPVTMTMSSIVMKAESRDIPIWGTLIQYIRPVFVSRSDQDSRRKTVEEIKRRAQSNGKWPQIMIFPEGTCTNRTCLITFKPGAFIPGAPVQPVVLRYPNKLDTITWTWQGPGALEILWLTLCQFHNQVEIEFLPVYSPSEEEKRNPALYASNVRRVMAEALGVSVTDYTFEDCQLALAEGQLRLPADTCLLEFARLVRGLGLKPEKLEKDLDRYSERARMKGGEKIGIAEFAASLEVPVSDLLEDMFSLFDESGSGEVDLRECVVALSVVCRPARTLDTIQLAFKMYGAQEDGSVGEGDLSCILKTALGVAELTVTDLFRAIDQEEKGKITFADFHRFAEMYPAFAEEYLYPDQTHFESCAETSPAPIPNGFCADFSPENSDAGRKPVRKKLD
- thermal stability z-score (potassium arsenate): 0.149
- thermal stability z-score (lipoamide; [1]): -0.369
- thermal stability z-score (lipoamide; arsenate co-treatment: none): -0.129

Target: PTPRM (UniProt P28827)
- thermal stability z-score (potassium arsenate): 0.672
- thermal stability z-score (lipoamide; [1]): 0.782
- thermal stability z-score (lipoamide; arsenate co-treatment: none): 1.16

Target: CINP (UniProt Q9BW66)
Sequence of UniProt Q9BW66 (Q9BW66 whole entry): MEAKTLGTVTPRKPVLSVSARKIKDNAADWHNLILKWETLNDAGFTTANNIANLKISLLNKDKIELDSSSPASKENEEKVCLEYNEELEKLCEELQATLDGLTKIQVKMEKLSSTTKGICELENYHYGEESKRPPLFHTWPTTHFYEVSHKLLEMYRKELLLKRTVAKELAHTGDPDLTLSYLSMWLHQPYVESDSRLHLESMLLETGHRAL
- thermal stability z-score (potassium arsenate): 0.256
- thermal stability z-score (lipoamide; [1]): -0.0967
- thermal stability z-score (lipoamide; arsenate co-treatment: none): -0.169

Target: C19ORF43 (UniProt Q9BQ61)
- thermal stability z-score (potassium arsenate): -0.0224
- thermal stability z-score (lipoamide; [1]): 0.121
- thermal stability z-score (lipoamide; arsenate co-treatment: none): 0.217

Target: GSPT2 (UniProt Q8IYD1)
- thermal stability z-score (potassium arsenate): -0.621
- thermal stability z-score (lipoamide; [1]): -0.0489
- thermal stability z-score (lipoamide; arsenate co-treatment: none): -0.153

Target: P4HB (UniProt P07237)
- thermal stability z-score (potassium arsenate): 0.47
- thermal stability z-score (lipoamide; [1]): -0.224
- thermal stability z-score (lipoamide; arsenate co-treatment: none): 0.393

Target: GTF2H1 (UniProt P32780)
Sequence of UniProt P32780 (P32780 whole entry): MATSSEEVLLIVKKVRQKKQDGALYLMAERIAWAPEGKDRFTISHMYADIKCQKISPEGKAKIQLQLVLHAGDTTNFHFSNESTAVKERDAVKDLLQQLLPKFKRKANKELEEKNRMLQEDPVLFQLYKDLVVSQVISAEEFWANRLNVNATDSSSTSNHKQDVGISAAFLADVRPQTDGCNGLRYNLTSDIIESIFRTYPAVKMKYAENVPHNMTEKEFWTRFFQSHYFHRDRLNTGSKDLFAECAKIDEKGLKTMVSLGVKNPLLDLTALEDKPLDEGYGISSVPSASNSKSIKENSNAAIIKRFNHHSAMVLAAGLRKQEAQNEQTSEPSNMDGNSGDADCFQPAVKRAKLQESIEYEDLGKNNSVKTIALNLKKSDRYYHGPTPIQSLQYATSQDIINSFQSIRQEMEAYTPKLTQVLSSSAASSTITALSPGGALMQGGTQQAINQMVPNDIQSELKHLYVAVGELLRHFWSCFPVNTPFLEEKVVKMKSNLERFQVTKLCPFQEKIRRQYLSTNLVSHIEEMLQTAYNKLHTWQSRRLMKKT
- thermal stability z-score (potassium arsenate): -0.0702
- thermal stability z-score (lipoamide; [1]): -0.0618
- thermal stability z-score (lipoamide; arsenate co-treatment: none): -0.0128

Target: UGGT2 (UniProt Q9NYU1)
- thermal stability z-score (potassium arsenate): 0.289
- thermal stability z-score (lipoamide; [1]): -1.81
- thermal stability z-score (lipoamide; arsenate co-treatment: none): -1.31

Target: HIST1H1E (UniProt P10412)
- thermal stability z-score (potassium arsenate): 0.618
- thermal stability z-score (lipoamide; [1]): 0.132
- thermal stability z-score (lipoamide; arsenate co-treatment: none): 0.627

Target: C8ORF59 (UniProt Q8N0T1)
Sequence of UniProt Q8N0T1 (Q8N0T1 whole entry): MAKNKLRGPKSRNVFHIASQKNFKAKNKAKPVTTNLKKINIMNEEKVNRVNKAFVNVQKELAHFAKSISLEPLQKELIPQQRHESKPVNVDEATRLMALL
- thermal stability z-score (potassium arsenate): -0.38
- thermal stability z-score (lipoamide; [1]): 0.481
- thermal stability z-score (lipoamide; arsenate co-treatment: none): 0.508

Target: CSNK1E (UniProt P49674)
Sequence of UniProt P49674 (P49674 whole entry, looked up): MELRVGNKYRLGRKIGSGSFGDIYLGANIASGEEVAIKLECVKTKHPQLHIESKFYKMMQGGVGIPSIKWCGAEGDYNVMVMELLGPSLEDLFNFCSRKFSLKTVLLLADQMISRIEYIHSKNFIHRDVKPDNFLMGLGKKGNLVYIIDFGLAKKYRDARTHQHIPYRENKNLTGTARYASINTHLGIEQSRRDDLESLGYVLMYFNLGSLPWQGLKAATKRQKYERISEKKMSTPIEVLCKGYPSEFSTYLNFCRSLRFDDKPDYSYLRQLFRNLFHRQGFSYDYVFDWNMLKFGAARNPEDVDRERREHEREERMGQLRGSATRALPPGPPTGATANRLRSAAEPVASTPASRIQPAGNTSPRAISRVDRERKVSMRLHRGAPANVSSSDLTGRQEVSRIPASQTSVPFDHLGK
- thermal stability z-score (potassium arsenate): -0.184
- thermal stability z-score (lipoamide; [1]): 0.18
- thermal stability z-score (lipoamide; arsenate co-treatment: none): -0.0385

Target: TEX264 (UniProt Q9Y6I9)
- thermal stability z-score (potassium arsenate): -0.568
- thermal stability z-score (lipoamide; [1]): -0.151
- thermal stability z-score (lipoamide; arsenate co-treatment: none): -0.929

Target: IDH3B (UniProt O43837)
- thermal stability z-score (potassium arsenate): -1.28
- thermal stability z-score (lipoamide; [1]): 0.075
- thermal stability z-score (lipoamide; arsenate co-treatment: none): -1.17

Target: LIMA1 (UniProt Q9UHB6)
- thermal stability z-score (potassium arsenate): -1
- thermal stability z-score (lipoamide; [1]): -0.552
- thermal stability z-score (lipoamide; arsenate co-treatment: none): -0.44
